Results published in patent publication US20230192617A1, “AZABICYCLIC(THIO)AMIDES AS FUNGICIDAL COMPOUNDS” (Bayer CropScience Aktiengesellschaft, priority 2020, published 2023).
Values belong to the molecule of their own block, whether it stands above or below them.

What was measured:
Sphaerotheca fuliginea = assay: In vivo preventive test on Sphaerotheca fuliginea (powdery mildew on cucurbits); details: Podosphaera fuliginea, 192 h; 500 ppm of active ingredient; preventive spray on gherkin; evaluated 8 days after inoculation; read-out: efficacy
Outline: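 Young gherkin plants were sprayed with compound in DMSO/acetone/Tween 80 diluted in water. They were inoculated 24 h later with a spore suspension of Sphaerotheca fuliginea. Plants were then kept for 8 days at 20 °C and 70–80% relative humidity.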

Pyrenophora teres [1] = assay: In vivo preventive test on Pyrenophora teres (net blotch on barley); details: 240 h, 500 ppm of active ingredient, preventive spray on barley, evaluated 10 days after inoculation, read-out: efficacy
Outline: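 Young barley plants sprayed preventively with compound formulated in DMSO/acetone/Tween 80 and diluted in water; controls got solvent only. Inoculated 24 hours later with P. teres spore suspension, then held 48 hours at 20° C, 100% RH and 8 days at 20° C, 70-80% RH.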

Septoria tritici = assay: B-9. Septoria tritici in vitro cell test; type: cell-based; details: Zymoseptoria tritici, 168 h; 20 ppm of active ingredient; 7 days incubation; liquid culture, absorbance; read-out: efficacy (inhibition of fungal growth)
Description: B-9. Septoria tritici In Vitro Cell Test [table] Fungicides were solubilized in DMSO and the solution used to prepare the required range of concentrations. The final concentration of DMSO used in the assay was ≤1%. A spore suspension of S. tritici was prepared and diluted to the desired spore density. Fungicides were evaluated for their ability to inhibit spore germination and mycelium growth in liquid culture assay. The compounds were added in the desired concentration to the culture medium with spores. After 7 days incubation, fungi-toxicity of compounds was determined by spectrometric measurement of mycelium growth. Inhibition of fungal growth was determined by comparing the absorbance values in wells containing the fungicides with the absorbance in control wells without fungicides.

Botrytis cinerea [2] = assay: B-11. Botrytis cinerea in vitro cell test; type: cell-based; details: 144 h, 20 ppm of active ingredient, 6 days incubation, liquid culture, absorbance, read-out: efficacy (inhibition of fungal growth)
Outline: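 B. cinerea spores were grown in liquid culture with compound (DMSO ≤1% final). Mycelium growth was measured spectrometrically after 6 days, with inhibition taken as absorbance relative to untreated control wells.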

Botrytis cinerea [3] = assay: In vivo preventive test on Botrytis cinerea (grey mould); details: 500 ppm of active ingredient, preventive spray on gherkin or cabbage, evaluated 4 to 5 days after inoculation, read-out: efficacy
Outline: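 Young gherkin or cabbage plants were sprayed with compound in DMSO/acetone/Tween 80 diluted in water, then inoculated 24 hours later with a B. cinerea spore suspension. Incubation lasted 4 to 5 days: gherkin at 17° C., 90% relative humidity; cabbage at 20° C., 100% relative humidity.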

Pyrenophora teres [4] = assay: B-10. Pyrenophora teres in vitro cell test; type: cell-based; details: 144 h, 20 ppm of active ingredient, 6 days incubation, liquid culture, absorbance, read-out: efficacy (inhibition of fungal growth)
Outline: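 Liquid-culture assay on a P. teres spore suspension with compounds added to the medium from DMSO solutions, final DMSO ≤1%. Mycelium growth read spectrometrically after 6 days. Inhibition calculated from absorbance against untreated control wells.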

[5] = Measurement of Log P values by HPLC on reversed phase columns (EEC directive 79/831 Annex V.A8); type: physicochemical; details: reversed phase HPLC column, method [a]: LC-UV, acidic range, 0.1% formic acid in water and acetonitrile as eluent
Outline: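 Reversed-phase HPLC with UV detection per EEC 79/831 Annex V.A8, linear 10–95% acetonitrile gradient. Aqueous eluent: 0.1% formic acid (acidic), 0.001 M ammonium acetate (neutral), or 0.1% phosphoric acid (acidic); multiple values in one method joined by "+".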

[6] = system: Colletotrichum lindemuthianum; assay: B-8. Colletotrichum lindemuthianum in vitro cell test; type: cell-based; details: 144 h, 20 ppm of active ingredient, 6 days incubation, liquid culture, absorbance, read-out: efficacy (inhibition of fungal growth)
Outline: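 Spore suspension of C. lindemuthianum in liquid medium exposed to DMSO-solubilized compounds (final DMSO ≤1%) for 6 days. Mycelial growth read by absorbance, with inhibition calculated relative to compound-free control wells.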

Alternaria alternata = Alternaria alternata in vitro cell test; type: cell-based; details: 120 h, 20 ppm of active ingredient, liquid culture, 5 days incubation, spectrometric measurement of mycelium growth, read-out: efficacy (inhibition of fungal growth)
Outline: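 Liquid culture assay in which A. alternata spores in medium received DMSO-solubilized compound (final DMSO ≤1%). After 5 days, mycelium growth was measured spectrometrically. Inhibition was calculated against fungicide-free control wells.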

[7] = system: Colletotrichum lindemuthianum; assay: In vivo preventive test on Colletotrichum lindemuthianum (leaf spot on bean); details: 168 h, 500 ppm of active ingredient, preventive spray on bean, evaluated 7 days after inoculation, read-out: efficacy
Outline: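 Young bean plants sprayed with compound in DMSO/acetone/Tween 80 diluted in water; solvent-only controls. Inoculated 24 h later with C. lindemuthianum spore suspension, then kept 24 h at 20 °C/100% RH and 6 days at 20 °C/90% RH.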

Alternaria brassicae = assay: In vivo preventive test on Alternaria brassicae (leaf spot on radish or cabbage); details: 500 ppm of active ingredient, preventive spray on radish or cabbage, evaluated 3 to 4 days after inoculation, read-out: efficacy
Outline: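 Young radish or cabbage plants were sprayed with compound dissolved in DMSO/acetone/Tween 80 and diluted in water; controls received solvent only. Inoculation by spraying A. brassicae spore suspension 24 h later, then 3–4 days at 20 °C and 100% relative humidity.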

SMILES: O=C(NCC(F)(F)c1ccc(Cl)cc1Cl)c1c(Oc2cccc(Cl)c2F)nnc2c1CCC2 [I-201]
pest or weed control at 500 ppm (Sphaerotheca fuliginea): 90 to 100% | pest or weed control at 500 ppm (Pyrenophora teres [1]): 90 to 100% | inhibition at 20 ppm (Septoria tritici): 90 to 100% | inhibition at 20 ppm (Botrytis cinerea [2]): 90 to 100% | pest or weed control at 500 ppm (Botrytis cinerea [3]): 90 to 100% | inhibition at 20 ppm (Pyrenophora teres [4]): 90 to 100% | chromatographic logP [5]: 3.94 | inhibition at 20 ppm [6]: 90 to 100% | inhibition at 20 ppm (Alternaria alternata): 90 to 100% | pest or weed control at 500 ppm [7]: 90 to 100%

SMILES: O=C(NCC(F)c1ccc(Cl)cc1Cl)c1c(Oc2cccc(C3CC3)c2F)nnc2c1CCCC2 (stereo not shown) [I-184]
pest or weed control at 500 ppm (Sphaerotheca fuliginea): 90 to 100% | pest or weed control at 500 ppm (Alternaria brassicae): 90 to 100% | pest or weed control at 500 ppm (Pyrenophora teres [1]): 90 to 100% | inhibition at 20 ppm (Septoria tritici): 90 to 100% | inhibition at 20 ppm (Botrytis cinerea [2]): 90 to 100% | inhibition at 20 ppm (Pyrenophora teres [4]): 90 to 100% | chromatographic logP [5]: 4.17 | inhibition at 20 ppm [6]: 90 to 100% | inhibition at 20 ppm (Alternaria alternata): 90 to 100% | pest or weed control at 500 ppm [7]: 90 to 100%

SMILES: Cc1cc(Br)ccc1C(F)(F)CNC(=O)c1c(Oc2cccc(C3CC3)c2F)nnc2c1CCCC2 [I-153]
pest or weed control at 500 ppm (Sphaerotheca fuliginea): 90 to 100% | pest or weed control at 500 ppm (Alternaria brassicae): 90 to 100% | pest or weed control at 500 ppm (Pyrenophora teres [1]): 90 to 100% | inhibition at 20 ppm (Septoria tritici): 90 to 100% | inhibition at 20 ppm (Botrytis cinerea [2]): 90 to 100% | inhibition at 20 ppm (Pyrenophora teres [4]): 90 to 100% | inhibition at 20 ppm [6]: 90 to 100% | inhibition at 20 ppm (Alternaria alternata): 90 to 100% | pest or weed control at 500 ppm [7]: 90 to 100%

SMILES: O=C(NCC(F)(F)c1ccc(Cl)cc1Cl)c1c(Oc2cccc(Cl)c2)nnc2c1CCCC2 [I-192]
pest or weed control at 500 ppm (Sphaerotheca fuliginea): 90 to 100% | pest or weed control at 500 ppm (Pyrenophora teres [1]): 90 to 100% | inhibition at 20 ppm (Septoria tritici): 90 to 100% | inhibition at 20 ppm (Botrytis cinerea [2]): 90 to 100% | pest or weed control at 500 ppm (Botrytis cinerea [3]): 90 to 100% | inhibition at 20 ppm (Pyrenophora teres [4]): 90 to 100% | chromatographic logP [5]: 4 | inhibition at 20 ppm [6]: 90 to 100% | inhibition at 20 ppm (Alternaria alternata): 90 to 100% | pest or weed control at 500 ppm [7]: 90 to 100%

More lines, main results first:

chromatographic logP [5]: 4.11
SMILES: O=C(NCC(F)(F)c1ccc(Br)cc1Cl)c1c(Oc2cccc(Cl)c2)nnc2c1CCCC2 [I-209]
pest or weed control at 500 ppm (Sphaerotheca fuliginea): 90 to 100% | pest or weed control at 500 ppm (Pyrenophora teres [1]): 90 to 100% | inhibition at 20 ppm (Septoria tritici): 80 to 89% | inhibition at 20 ppm (Botrytis cinerea [2]): 90 to 100% | pest or weed control at 500 ppm (Botrytis cinerea [3]): 90 to 100% | inhibition at 20 ppm (Pyrenophora teres [4]): 90 to 100% | inhibition at 20 ppm [6]: 90 to 100% | inhibition at 20 ppm (Alternaria alternata): 90 to 100% | pest or weed control at 500 ppm [7]: 90 to 100%

chromatographic logP [5]: 4.28
SMILES: Cc1cc(Br)ccc1C(F)(F)CNC(=O)c1c(Oc2cccc(C(F)(F)F)c2)nnc2c1CCCC2 [I-202]
pest or weed control at 500 ppm (Sphaerotheca fuliginea): 90 to 100% | pest or weed control at 500 ppm (Pyrenophora teres [1]): 90 to 100% | inhibition at 20 ppm (Septoria tritici): 90 to 100% | inhibition at 20 ppm (Botrytis cinerea [2]): 90 to 100% | pest or weed control at 500 ppm (Botrytis cinerea [3]): 90 to 100% | inhibition at 20 ppm (Pyrenophora teres [4]): 90 to 100% | inhibition at 20 ppm [6]: 90 to 100% | inhibition at 20 ppm (Alternaria alternata): 90 to 100% | pest or weed control at 500 ppm [7]: 90 to 100%

chromatographic logP [5]: 4.23
SMILES: O=C(NCC(F)(F)c1ccc(Cl)cc1Cl)c1c(Oc2cccc(C(F)(F)F)c2)nnc2c1CCCC2 [I-189]
pest or weed control at 500 ppm (Sphaerotheca fuliginea): 90 to 100% | pest or weed control at 500 ppm (Pyrenophora teres [1]): 80 to 89% | inhibition at 20 ppm (Septoria tritici): 90 to 100% | inhibition at 20 ppm (Botrytis cinerea [2]): 90 to 100% | pest or weed control at 500 ppm (Botrytis cinerea [3]): 90 to 100% | inhibition at 20 ppm (Pyrenophora teres [4]): 90 to 100% | inhibition at 20 ppm [6]: 90 to 100% | inhibition at 20 ppm (Alternaria alternata): 90 to 100% | pest or weed control at 500 ppm [7]: 90 to 100%

chromatographic logP [5]: 4.05
SMILES: O=C(NCC(F)(F)c1ccc(Cl)cc1Cl)c1c(Oc2cccc(C(F)(F)F)c2)nnc2c1CCC2 [I-198]
pest or weed control at 500 ppm (Sphaerotheca fuliginea): 90 to 100% | pest or weed control at 500 ppm (Pyrenophora teres [1]): 80 to 89% | inhibition at 20 ppm (Septoria tritici): 90 to 100% | inhibition at 20 ppm (Botrytis cinerea [2]): 90 to 100% | pest or weed control at 500 ppm (Botrytis cinerea [3]): 90 to 100% | inhibition at 20 ppm (Pyrenophora teres [4]): 90 to 100% | inhibition at 20 ppm [6]: 90 to 100% | inhibition at 20 ppm (Alternaria alternata): 90 to 100% | pest or weed control at 500 ppm [7]: 90 to 100%
